Experimental data reported in DBAASP.
≈ marks a conversion by molar mass, not a printed value.

Columns and labels:
Test in all cases: ≥ marks a high value that may be exact or a test limit, other limits are often not marked, values filed in µg/mL are converted to µM
[1] = tested on: Bifidobacterium longum subsp. infantis
Escherichia coli = tested on: Escherichia coli
Staphylococcus aureus = tested on: Staphylococcus aureus
[2] = tested on: Escherichia coli CCT 1371
[3] = tested on: Staphylococcus aureus USA 300
[4] = tested on: Bacillus subtilis CCT 2471
[5] = tested on: Staphylococcus aureus USA 100
Candida albicans = tested on: Candida albicans
[6] = tested on: Candida albicans KACC 30071
[7] = tested on: Escherichia coli KACC 1039
[8] = tested on: Pseudomonas aeruginosa ATCC 27853
[9] = tested on: Candida albicans ATCC 90028
[10] = tested on: Enterobacter cloacae ATCC 23355
[11] = tested on: Klebsiella pneumoniae ATCC 13883
[12] = tested on: Staphylococcus saprophyticus
[13] = tested on: Pseudomonas aeruginosa KACC 10259
[14] = tested on: Bacillus subtilis KACC 10196
[15] = tested on: Pseudomonas aeruginosa ATCC 9027
[16] = tested on: Staphylococcus aureus ATCC 6535
[17] = tested on: Staphylococcus aureus KACC 10196
[18] = tested on: Enterococcus faecalis KACC 11304
[19] = tested on: Klebsiella pneumoniae KCTC 2242
[20] = tested on: Escherichia coli ATCC 25922
[21] = tested on: Staphylococcus aureus ATCC 25923
[22] = tested on: Saccharomyces cerevisiae AS2.430
[23] = tested on: Acinetobacter baumannii ATCC 7978
[24] = tested on: Pseudomonas aeruginosa PA14
[25] = tested on: Klebsiella pneumoniae WGLW2
[26] = tested on: Staphylococcus aureus ATCC 29231
[27] = tested on: Escherichia coli LMG 15862
[28] = tested on: Pseudomonas aeruginosa LMG 6395
[29] = tested on: Klebsiella aerogenes LMG 02094
[30] = tested on: Acinetobacter baumannii LMG 01041
[31] = tested on: Klebsiella pneumoniae LMG 20218
[32] = tested on: Staphylococcus aureus MW2
[33] = tested on: Enterococcus faecium E007
[34] = tested on: Escherichia coli BW25113 ΔsbmA
Escherichia coli BW25113 = tested on: Escherichia coli BW25113
[35] = tested on: Enterococcus faecium ATCC 19434
[36] = tested on: Klebsiella pneumoniae ATCC 700603
[37] = tested on: Acinetobacter baumannii ATCC 19606
[38] = tested on: Enterobacter cloacae ATCC 13047

For CC[C@H](C)[C@H](NC(=O)[C@@H]1CCCN1C(=O)[C@@H](N)CCC(=O)O)C(=O)N1CCC[C@H]1C(=O)N[C@@H](CC(C)C)C(=O)N[C@@H](CCC(=O)O)C(=O)N[C@@H](CO)C(=O)N[C@@H](CCCN=C(N)N)C(=O)N[C@@H](CCC(=O)O)C(=O)N[C@@H](CCC(=O)O)C(=O)O [EPIPLESREE], the MIC [1] was at least 2500 µM, the MIC (Escherichia coli) was 2090 µM (≈ 2500 µg/mL) and the MIC (Staphylococcus aureus) was 2090 µM (≈ 2500 µg/mL).

Compound CC[C@H](C)[C@H](NC(=O)[C@H](CO)NC(=O)[C@@H](NC(=O)[C@H](CCCCN)NC(=O)[C@H](Cc1ccccc1)NC(=O)[C@@H]1CCCN1)[C@@H](C)CC)C(=O)N[C@@H](Cc1cnc[nH]1)C(=O)N[C@@H](CC(C)C)C(N)=O [PFKISIHL] has an MIC [2] of 2.62 µM (≈ 2.5 µg/mL), an MIC [3] of at least 50 µM and an MIC [4] of 10.5 µM (≈ 9.99 µg/mL). The MIC [5] was at least 50 µM, the MIC (Candida albicans) was 2.62 µM (≈ 2.5 µg/mL) and the MIC [6] was 16 µM (≈ 15.3 µg/mL). It also gave an MIC [7] of 8 µM (≈ 7.63 µg/mL), an MIC [8] of 10.5 µM (≈ 9.99 µg/mL) and an MIC [9] of at least 50 µM. It also gave an MIC [10] of 10.5 µM (≈ 9.99 µg/mL), an MIC [11] of 10.5 µM (≈ 9.99 µg/mL) and an MIC [12] of 15.7 µM (≈ 15 µg/mL). For the same compound, the MIC [13] was 8 µM (≈ 7.63 µg/mL), the MIC [14] was 4 µM (≈ 3.81 µg/mL) and the MIC [15] was 50 µM (≈ 47.7 µg/mL). It also gave an MIC [16] of 10.5 µM (≈ 9.99 µg/mL), an MIC [17] of 16 µM (≈ 15.3 µg/mL) and an MIC [18] of 16 µM (≈ 15.3 µg/mL). The MIC [19] was 8 µM (≈ 7.63 µg/mL).

Work on CC(C)C[C@H](NC(=O)[C@H](CCC(=O)O)NC(=O)[C@@H](N)CCCCN)C(=O)N[C@@H](CCC(=O)O)C(=O)N[C@@H](CCC(=O)O)C(=O)N[C@@H](CCCCN)C(=O)O [KELEEK] yielded an MIC [20] of 807 µM (≈ 625 µg/mL), an MIC [21] of 403 µM (≈ 313 µg/mL) and an MIC [22] of at least 25800 µM.

CC[C@H](C)[C@H](NC(=O)[C@H](Cc1c[nH]c2ccccc12)NC(=O)[C@H](CCCCN)NC(=O)[C@@H](N)CC(C)C)C(=O)NCC(=O)N[C@@H](CCCCN)C(=O)N[C@@H](CCCCN)C(=O)N[C@H](C(=O)N[C@@H](Cc1c[nH]c2ccccc12)C(=O)N[C@@H](CCCN=C(N)N)C(=O)N[C@H](C(=O)NCC(=O)O)C(C)C)[C@@H](C)CC [LKWIGKKIWRVG] was tested, and the MIC [23] was at least 86.3 µM, the MIC [24] was at least 86.3 µM and the MIC [25] was at least 86.3 µM. It also gave an MIC [26] of at least 86.3 µM.

In the case of CC[C@H](C)[C@H](NC(=O)[C@H](C)N)C(=O)N[C@H](C(=O)N[C@@H](CCC(N)=O)C(=O)N[C@@H](CCCN=C(N)N)C(=O)N[C@H](C(=O)N[C@@H](CCCCN)C(=O)N[C@@H](CCCCN)C(=O)N[C@@H](Cc1c[nH]c2ccccc12)C(=O)N[C@@H](CC(C)C)C(=O)N[C@@H](CCCN=C(N)N)C(N)=O)[C@@H](C)CC)C(C)C [AIVQRIKKWLR], the MIC [27] is reported as 12 µM (≈ 16.9 µg/mL), the MIC [28] is reported as 16 µM (≈ 22.6 µg/mL) and the MIC [29] is reported as at least 128 µM. The MIC [30] was at least 128 µM and the MIC [31] was 24 µM (≈ 33.8 µg/mL).

Work on CC[C@H](C)[C@H](NC(=O)[C@H](Cc1c[nH]c2ccccc12)NC(=O)[C@H](CCCCN)NC(=O)[C@@H](N)CC(C)C)C(=O)NCC(=O)N[C@@H](CCCCN)C(=O)N[C@@H](Cc1c[nH]c2ccccc12)C(=O)N[C@H](C(=O)N[C@@H](Cc1c[nH]c2ccccc12)C(=O)N[C@@H](CCCN=C(N)N)C(=O)N[C@H](C(=O)NCC(=O)N[C@@H](Cc1c[nH]c2ccccc12)C(=O)N[C@@H](CC(N)=O)C(=O)N[C@@H](Cc1c[nH]c2ccccc12)C(=O)N[C@@H](CCCN=C(N)N)C(=O)O)C(C)C)[C@@H](C)CC [LKWIGKWIWRVGWNWR] yielded an MIC [23] of at least 58.6 µM, an MIC [32] of 29.3 µM (≈ 64 µg/mL) and an MIC [26] of at least 58.6 µM. It also gave an MIC [33] of at least 58.6 µM.

In the case of CC[C@H](C)[C@H](NC(=O)[C@H](CCCN=C(N)N)NC(=O)[C@@H](N)Cc1c[nH]c2ccccc12)C(=O)N[C@@H](CCCN=C(N)N)C(=O)N[C@@H](CCCN=C(N)N)C(=O)N[C@@H](CCCN=C(N)N)C(=O)N[C@@H](Cc1c[nH]c2ccccc12)C(=O)N1CCC[C@H]1C(=O)N[C@@H](CCCN=C(N)N)C(=O)N[C@@H](CC(C)C)C(=O)N1CCC[C@H]1C(=O)N[C@@H](CCCN=C(N)N)C(=O)N1CCC[C@H]1C(=O)N[C@@H](CCCN=C(N)N)C(=O)N[C@@H](Cc1c[nH]c2ccccc12)C(=O)N[C@@H](CCCN=C(N)N)C(=O)O [WRIRRRWPRLPRPRWR], the MIC [21] is reported as 12 µM (≈ 28.1 µg/mL), the MIC [8] is reported as 32 µM (≈ 75 µg/mL) and the MIC [34] is reported as 4 µM (≈ 9.38 µg/mL). The MIC (Escherichia coli BW25113) was 2 µM (≈ 4.69 µg/mL), the MIC [35] was at least 32 µM and the MIC [36] was 2 µM (≈ 4.69 µg/mL). For the same compound, the MIC [37] was 4 µM (≈ 9.38 µg/mL) and the MIC [38] was 8 µM (≈ 18.8 µg/mL).
